According to patent US20120225921A1, “METHOD OF CONTROLLING PHYTOPATHOGENIC DISEASES ON TURFGRASS” (SYNGENTA CROP PROTECTION, LLC, priority 2006, published 2012):

Columns and labels:
Assay type in all cases: in vivo
Sclerotinia homoeocarpa [1] = assay: Control of Sclerotinia homoeocarpa on Creeping Bentgrass (Example B-1, plot spray treatment); conditions: 500 g ai/ha, sprayed three times every 14 days, assessed 19 days after last treatment, vs untreated (60% diseased)
Procedure: The following EC formulations were prepared: […]
(§1) Plots were inoculated with Creeping Bentgrass (Agrostis palustris Huds.) seeds infested with Sclerotinia homoeocarpa, and a quantity of formulations A and B which corresponds to a dose shown in the table below and expressed in g/ha was sprayed on the plots. This treatment was repeated three times at an interval of 1 treatment every 14 days. 19 days after the last treatment, the disease incidence and severity was assessed visually. […] Disease control is shown as % disease control compared to untreated Creeping Bentgrass.

Rhizoctonia solani = assay: Control of Rhizoctonia solani on Colonial Bentgrass (Example B-4); conditions: 302 g ai/ha, application interval 14 days, three sprays, assessed 21 days after final application, natural infection, vs untreated (80% diseased)
Procedure: Plots of Colonial Bentgrass (Agrostis tenius Sibth.) naturally infected with brown patch (Rhizoctonia solani) were treated with quantities of formulation C which correspond to a dose shown in the table below and expressed in g ai/ha. The dose corresponding to 302 g ai/ha was sprayed three times with an interval of 14 days. The dose corresponding to 604 g ai/ha was sprayed two times with an interval of 28 days. At 21 days after the final application of both dose rates, disease severity was assessed visually. […] Disease control is shown as % disease control compared to untreated plots.

Sclerotinia homoeocarpa [2] = assay: Control of Sclerotinia homoeocarpa on Kentucky Bluegrass (Example B-2, plot spray treatment); conditions: 500 g ai/ha, sprayed three times every 14 days, assessed 19 days after last treatment, vs untreated (58% diseased)
Procedure: as §1, with “Kentucky Bluegrass (Poa pratensis L.)” for “Creeping Bentgrass (Agrostis palustris Huds.)”, “Kentucky Bluegrass.” for “Creeping Bentgrass.”

[3] = tested on: Colletotrichum graminicola; assay: Control of Colletotrichum graminicola on Annual Bluegrass/Creeping Bentgrass (Example B-3); conditions: 500 g ai/ha; application interval 21 days, three sprays; assessed 10 days after final application; Poa/Bentgrass, natural infection; vs untreated (44% diseased)
Procedure: The following EC formulation was prepared: […]
Plots of a mixture of Annual Bluegrass (Poa annua) and Creeping Bentgrass (Agrostis stolifera) naturally infected with anthracnose (Colletotrichum graminicola) were treated with quantities of formulation C which correspond to a dose shown in the table below and expressed in g ai/ha. The dose corresponding to 250 g ai/ha was sprayed four times with an interval of 14 days. The dose corresponding to 500 g ai/ha was sprayed three times with an interval of 21 days. At 23 days after the final application with the 250 g ai/ha dose, and 10 days after the final application with the 500 g ai/ha dose, disease severity was assessed visually. […] Disease control is shown as % disease control compared to untreated plots.

| SMILES | % Disease Control (Sclerotinia homoeocarpa [1]) | % Disease Control (Rhizoctonia solani) | % Disease Control (Sclerotinia homoeocarpa [2]) | % Disease Control [3] |
| --- | --- | --- | --- | --- |
| CC(C)C1C2CCC1c1c(NC(=O)c3cn(C)nc3C(F)F)cccc12 (racemic) [Compound IAc] | 93% | 97% | 88% | 92% |
| CC(C)CC(C)c1sccc1NC(=O)c1cn(C)nc1C(F)(F)F (stereo not drawn) [Penthiopyrad, N-[2-(1,3-dimethylbutyl)-3-thienyl]-1-methyl-3-(trifluoromethyl)-1H-pyrazole-4-carboxamide, reference compound] | 57% | – | 21% | – |
